Consider 36 molecules from US8299111B2, “Compounds which modulate the CB2 receptor” (Boehringer Ingelheim International GmbH, priority 2006, dated 2012).

The structures appear in SMILES notation.

T1 sequence (P34972 whole entry): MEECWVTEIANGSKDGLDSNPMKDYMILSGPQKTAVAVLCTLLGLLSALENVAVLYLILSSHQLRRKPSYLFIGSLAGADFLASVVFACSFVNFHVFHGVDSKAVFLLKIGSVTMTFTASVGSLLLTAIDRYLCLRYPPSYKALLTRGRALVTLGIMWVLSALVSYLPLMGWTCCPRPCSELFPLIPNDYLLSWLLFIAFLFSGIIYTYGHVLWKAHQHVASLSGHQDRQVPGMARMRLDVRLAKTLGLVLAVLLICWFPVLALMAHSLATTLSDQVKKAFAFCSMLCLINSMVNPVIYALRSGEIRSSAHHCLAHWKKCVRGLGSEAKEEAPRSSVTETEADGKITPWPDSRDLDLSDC

This test concerns the target T1, human CB2R (Homo sapiens, UniProt P34972).
T1 construct: host or cells: CHO cells
Kind of test: CB2R mediated modulation of cAMP synthesis. The class given is cell-based. The note with it: found through the use of the above described assays (binding and cAMP); CHO cells expressing human CB2R, forskolin-stimulated cAMP. In outline: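 CHO cells expressing human CB2R were treated for 30 min at 37 °C with compound in buffer containing 1 mM IBMX, 0.25% BSA and 10 uM forskolin. cAMP was measured after lysis. EC50 is the concentration giving 50% inhibition of forskolin-stimulated cAMP, scaled to the level set by 1 uM CP55940, fitted by four-parameter logistic.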
Turning to `Cc1ccc(S(=O)(=O)C(C)(C)C(=O)Nc2ccc(C(F)(F)F)cn2)cn1` [2-Methyl-2-(6-methyl-pyridine-3-sulfonyl)-N-(5-trifluoromethyl-pyridin-2-yl)-propionamide], the agonistic activity entry is given as “agonistic activity”.

`Cc1ccc(S(=O)(=O)C(C)(C)C(=O)Nc2cccc(C(F)(F)F)n2)cn1` [2-Methyl-2-(6-methyl-pyridine-3-sulfonyl)-N-(6-trifluoromethyl-pyridin-2-yl)-propionamide]: the agonistic activity result is given as “agonistic activity”.

As for `CC(C)(C(=O)Nc1ccc(C(F)(F)F)cn1)S(=O)(=O)c1ccc(N2CCOCC2)nc1` [2-Methyl-2-(6-morpholin-4-yl-pyridine-3-sulfonyl)-N-(5-trifluoromethyl-pyridin-2-yl)-propionamide], the agonistic activity result was “agonistic activity”.

Turning to `CC(C)(C(=O)Nc1cc(C(F)(F)F)ccn1)S(=O)(=O)c1ccc(C(F)(F)F)nc1` [2-Methyl-2-(6-trifluoromethyl-pyridine-3-sulfonyl)-N-(4-trifluoromethyl-pyridin-2-yl)-propionamide], the agonistic activity result is reported as “agonistic activity”.

Regarding `CC(C)(C(=O)Nc1ccc(C(F)(F)F)cn1)S(=O)(=O)c1ccc(C(F)(F)F)nc1` [2-Methyl-2-(6-trifluoromethyl-pyridine-3-sulfonyl)-N-(5-trifluoromethyl-pyridin-2-yl)-propionamide], the agonistic activity result is “agonistic activity”.

Regarding `Cc1ccc(S(=O)(=O)C(C)(C)C(=O)Nc2nc(C(F)(F)F)cs2)cc1` [2-Methyl-2-(toluene-4-sulfonyl)-N-(4-trifluoromethyl-thiazol-2-yl)-propionamide], the agonistic activity result is recorded as “agonistic activity”.

With `Cc1ccc(S(=O)(=O)C(C)(C)C(=O)Nc2ccc(C(F)(F)F)cn2)cc1` [2-Methyl-2-(toluene-4-sulfonyl)-N-(5-trifluoromethyl-pyridin-2-yl)-propionamide], the agonistic activity result is “agonistic activity”.

In the case of `Cc1ccc(S(=O)(=O)C(C)(C)C(=O)Nc2cccc(C(F)(F)F)n2)cc1` [2-Methyl-2-(toluene-4-sulfonyl)-N-(6-trifluoromethyl-pyridin-2-yl)-propionamide], the agonistic activity result is reported as “agonistic activity”.

Regarding `Cn1nc(-c2ccccc2)cc1NC(=O)C(C)(C)S(=O)(=O)c1ccc(C(F)(F)F)nc1` [2-Methyl-N-(2-methyl-5-phenyl-2H-pyrazol-3-yl)-2-(6-trifluoromethyl-pyridine-3-sulfonyl)-propionamide], the agonistic activity result is reported as “agonistic activity”.

Regarding `Cc1ccc(S(=O)(=O)C(C)(C)C(=O)Nc2cc(-c3ccccc3)nn2C)cc1` [2-Methyl-N-(2-methyl-5-phenyl-2H-pyrazol-3-yl)-2-(toluene-4-sulfonyl)-propionamide], the agonistic activity result was “agonistic activity”.

With `Cc1cnc(NC(=O)C(C)(C)S(=O)(=O)c2ccc(C(F)(F)F)cc2)s1` [2-Methyl-N-(5-methyl-thiazol-2-yl)-2-(4-trifluoromethyl-benzenesulfonyl)-propionamide], the agonistic activity result is reported as “agonistic activity”.

Turning to `Cc1cnc(NC(=O)C(C)(C)S(=O)(=O)c2ccc(C(F)(F)F)cn2)s1` [2-Methyl-N-(5-methyl-thiazol-2-yl)-2-(5-trifluoromethyl-pyridine-2-sulfonyl)-propionamide], the agonistic activity entry is recorded as “agonistic activity”.

Regarding `CC(C)(C(=O)Nc1cccnc1)S(=O)(=O)c1ccc(C(F)(F)F)cc1` [2-Methyl-N-pyridin-3-yl-2-(4-trifluoromethyl-benzenesulfonyl)-propionamide], the agonistic activity entry is recorded as “agonistic activity”.

`CCCc1cc(NC(=O)C(C)(C)S(=O)(=O)c2ccc(F)cc2F)on1` [2-[(2,4-difluorophenyl)sulfonyl]-2-methyl-N-(3-propylisoxazol-5-yl)propanamide]: the agonistic activity entry is recorded as “agonistic activity”.

`CC(C)(C(=O)Nc1cc(C(F)(F)F)ccn1)S(=O)(=O)c1ccc(F)cc1F` [2-[(2,4-difluorophenyl)sulfonyl]-2-methyl-N-[4-(trifluoromethyl)pyridin-2-yl]propanamide]: the agonistic activity entry is listed as “agonistic activity”.

For the molecule `CC(C)(C(=O)Nc1ccc(C(F)(F)F)cn1)S(=O)(=O)c1ccc(F)cc1F` [2-[(2,4-difluorophenyl)sulfonyl]-2-methyl-N-[5-(trifluoromethyl)pyridin-2-yl]propanamide], the agonistic activity entry is on record as “agonistic activity”.

With `CC(C)(C(=O)Nc1cccc(C(F)(F)F)n1)S(=O)(=O)c1ccc(F)cc1F` [2-[(2,4-difluorophenyl)sulfonyl]-2-methyl-N-[6-(trifluoromethyl)pyridin-2-yl]propanamide], the agonistic activity entry is “agonistic activity”.

For the molecule `CCc1sc(NC(=O)C(C)(C)S(=O)(=O)c2ccc(F)cc2F)nc1-c1ccccc1` [2-[(2,4-difluorophenyl)sulfonyl]-N-(5-ethyl-4-phenyl-1,3-thiazol-2-yl)-2-methylpropanamide], the agonistic activity result was “agonistic activity”.

Consider `CC(C)(C)Cc1cc(NC(=O)C(C)(C)S(=O)(=O)c2ccc(F)cc2F)on1` [2-[(2,4-difluorophenyl)sulfonyl]-N-[3-(2,2-dimethylpropyl)isoxazol-5-yl]-2-methylpropanamide], for which the agonistic activity entry is “agonistic activity”.

Regarding `CC(C)(C(=O)Nc1cccc2ccccc12)S(=O)(=O)c1ccc(Cl)cc1F` [2-[(4-chloro-2-fluorophenyl)sulfonyl]-2-methyl-N-1-naphthylpropanamide], the agonistic activity result is on record as “agonistic activity”.

`CCCc1cc(NC(=O)C(C)(C)S(=O)(=O)c2ccc(Cl)cc2F)on1` [2-[(4-chloro-2-fluorophenyl)sulfonyl]-2-methyl-N-(3-propylisoxazol-5-yl)propanamide]: the agonistic activity result is given as “agonistic activity”.

In the case of `CC(C)(C(=O)Nc1nc(-c2ccccc2)cs1)S(=O)(=O)c1ccc(Cl)cc1F` [2-[(4-chloro-2-fluorophenyl)sulfonyl]-2-methyl-N-(4-phenyl-1,3-thiazol-2-yl)propanamide], the agonistic activity result is “agonistic activity”.

Consider `Cc1sc(NC(=O)C(C)(C)S(=O)(=O)c2ccc(Cl)cc2F)nc1-c1ccccc1` [2-[(4-chloro-2-fluorophenyl)sulfonyl]-2-methyl-N-(5-methyl-4-phenyl-1,3-thiazol-2-yl)propanamide], for which the agonistic activity entry is “agonistic activity”.

Regarding `Cc1ccc(NC(=O)C(C)(C)S(=O)(=O)c2ccc(Cl)cc2F)nc1` [2-[(4-chloro-2-fluorophenyl)sulfonyl]-2-methyl-N-(5-methylpyridin-2-yl)propanamide], the agonistic activity result is listed as “agonistic activity”.

Consider `CC(C)(C(=O)Nc1nsc(-c2ccccc2)n1)S(=O)(=O)c1ccc(Cl)cc1F` [2-[(4-chloro-2-fluorophenyl)sulfonyl]-2-methyl-N-(5-phenyl-1,2,4-thiadiazol-3-yl)propanamide], for which the agonistic activity entry is on record as “agonistic activity”.

For the molecule `CC(C)(C(=O)Nc1cccc(C(F)(F)F)c1)S(=O)(=O)c1ccc(Cl)cc1F` [2-[(4-chloro-2-fluorophenyl)sulfonyl]-2-methyl-N-[3-(trifluoromethyl)phenyl]propanamide], the agonistic activity result is “agonistic activity”.

Consider `CC(C)(C(=O)Nc1nc(C(F)(F)F)cs1)S(=O)(=O)c1ccc(Cl)cc1F` [2-[(4-chloro-2-fluorophenyl)sulfonyl]-2-methyl-N-[4-(trifluoromethyl)-1,3-thiazol-2-yl]propanamide], for which the agonistic activity entry is on record as “agonistic activity”.

For `CC(C)(C(=O)Nc1ccc(C(F)(F)F)cc1)S(=O)(=O)c1ccc(Cl)cc1F` [2-[(4-chloro-2-fluorophenyl)sulfonyl]-2-methyl-N-[4-(trifluoromethyl)phenyl]propanamide], the agonistic activity result is listed as “agonistic activity”.

As to `CC(C)(C(=O)Nc1ccc2ccccc2n1)S(=O)(=O)c1ccc(Cl)cc1F` [2-[(4-chloro-2-fluorophenyl)sulfonyl]-2-methyl-N-quinolin-2-ylpropanamide], the agonistic activity result was “agonistic activity”.

With `CC(C)(C(=O)Nc1cnc2ccccc2c1)S(=O)(=O)c1ccc(Cl)cc1F` [2-[(4-chloro-2-fluorophenyl)sulfonyl]-2-methyl-N-quinolin-3-ylpropanamide], the agonistic activity result was “agonistic activity”.

`CC(C)(C(=O)Nc1nc(C2CCCCC2)cs1)S(=O)(=O)c1ccc(Cl)cc1F` [2-[(4-chloro-2-fluorophenyl)sulfonyl]-N-(4-cyclohexyl-1,3-thiazol-2-yl)-2-methylpropanamide]: the agonistic activity entry is given as “agonistic activity”.

In the case of `CC(C)(C(=O)Nc1nc(C2CC2)cs1)S(=O)(=O)c1ccc(Cl)cc1F` [2-[(4-chloro-2-fluorophenyl)sulfonyl]-N-(4-cyclopropyl-1,3-thiazol-2-yl)-2-methylpropanamide], the agonistic activity entry is listed as “agonistic activity”.

With `CCc1ccnc(NC(=O)C(C)(C)S(=O)(=O)c2ccc(Cl)cc2F)c1` [2-[(4-chloro-2-fluorophenyl)sulfonyl]-N-(4-ethylpyridin-2-yl)-2-methylpropanamide], the agonistic activity entry is listed as “agonistic activity”.

Regarding `CC(C)(C)Cc1cc(NC(=O)C(C)(C)S(=O)(=O)c2ccc(Cl)cc2F)on1` [2-[(4-chloro-2-fluorophenyl)sulfonyl]-N-[3-(2,2-dimethylpropyl)isoxazol-5-yl]-2-methylpropanamide], the agonistic activity entry is given as “agonistic activity”.

As for `CC(C)(C(=O)Nc1nc(-c2ccc(Cl)cc2)cs1)S(=O)(=O)c1ccc(Cl)cc1F` [2-[(4-chloro-2-fluorophenyl)sulfonyl]-N-[4-(4-chlorophenyl)-1,3-thiazol-2-yl]-2-methylpropanamide], the agonistic activity result is “agonistic activity”.

Consider `CC(C)(C(=O)Nc1cc2ccccc2cn1)S(=O)(=O)c1ccc(Cl)cc1F` [2-[(4-chloro-2-fluorophenyl)sulfonyl]-N-isoquinolin-3-yl-2-methylpropanamide], for which the agonistic activity result is reported as “agonistic activity”.
